Source: patent publication US20250304623A1, “PEPTIDES FOR INTRACELLULAR DELIVERY” (UNIVERSIDADE DE SANTIAGO DE COMPOSTELA, priority 2022, published 2025)
pIC50: −log10 of the molar value. Starred links: 1 amine or outer side, 2 acyl side, 3 side chain; linkers in the order of their positions; H or OH if unused. Residues, ends and D or L forms follow the SMILES beside them. Groups on a side chain read outwards from the residue. *: point of attachment. Glutaryl = O=C(CCCC(=O)[*:2])[*:1]; X1 = CCCC/C=C\CCCCCCCC=NN*

What was measured:
[1] = tested on: HepG2
[2] = tested on: mice; test: In vivo FLuc mRNA delivery, i.v. injection, predilution formulation, BLI; conditions: i.v. tail vein, organs after 24 h
Procedure: FIG. 10A In vivo mRNA transfection. Representative bioluminescence images of animals and extracted organs following i.v. (intravenous) injection of FLuc mRNA/amphiphile complexes (0, 2.5 and 5 μM of 7.3(Leu-His) M) at different times (1 h, 4 h, 7 h and 24 h). 1.3 μg FLuc mRNA were used in all conditions. FIG. 10B Quantification of the organs' bioluminescence
In the case of i.v. administration (tail vein), luciferase expression was evaluated over 24 h, starting at 1 h after the administration of mRNA complexes. After that time, the specimens were sacrificed, and each organ was analysed individually using BLI for quantification of the expression. In this case, preferred conditions involved the injection of 50 μL of complex solution in a suitable buffer, such as PBS, or phosphate buffer enriched with inorganic salts, comprising 2.5 μM 7.3(Leu-His) M and 1.3 μg/mouse FLuc mRNA.

[3] = tested on: mice; test: In vivo FLuc mRNA delivery, i.m. injection, bioluminescence imaging
Procedure: In vivo bioluminescence imaging (BLI) enables localization and quantification of expression following mRNA delivery in living animals.
The inventors evaluated the mRNA delivery efficiency of amphiphile by i.m. injections of an amphiphile-complexed FLuc mRNA in anesthetized mice using BLI. Amphiphilic molecule stock solutions were prepared in DMSO as described above and diluted in a suitable buffer, such as PBS, or phosphate buffer enriched with inorganic salts. The solutions of mRNA/amphiphile complexes were freshly prepared prior to in vivo experiments. Amphiphile solutions in a suitable buffer, such as PBS, or phosphate buffer enriched with inorganic salts, were mixed with mRNA solutions in a suitable buffer, such as PBS, or phosphate buffer enriched with inorganic salts (1:1 volume ratio, final amount of mRNA per mice=5 μg/mouse). The mixture was shaken for 30 min at room temperature before injection. For each mouse, 5 μg mRNA was complexed with the best candidates obtained from the in vitro experiments, 7.3(Leu-His) with myristoleyl aldehyde (7.3(Leu-His) M) (FIG. 7) or with palmitoleyl aldehyde (7.3(Leu-His) PA) (FIG. 8), and administered by i.m. injection in the right flank in 50 μL of a suitable buffer, such as PBS, or phosphate buffer enriched with inorganic salts. As control, 5 μg of naked mRNA was injected in three mice. Luciferase expression was evaluated over 48 h, starting at 1 h after the administration of mRNA complexes. […] In contrast, i.m. injections of naked mRNA afforded only low levels of luciferase expression, as measured by photon flux, in all mice. The experiment was performed in, at least, triplicates (3 mice per condition).
After obtaining the conditions providing the highest expression, a second round of i.m. delivery of FLuc mRNA was performed to further optimize the formulation of the complexes. […]

[4] = tested on: Ai14 mice; test: In vivo gene editing by Cre mRNA delivery, tdTomato fluorescence; conditions: i.v.; 7 μg Cre mRNA; 1:1 and 5:1 mass ratio amphiphile:mRNA; 2 days
Procedure: In vivo gene editing enables localization and quantification of expression following Cre recombinase mRNA delivery in Ai14 mice, a reporter strain that expresses tdTomato fluorescence after Cre-mediated recombination.
The inventors evaluated the mRNA delivery efficiency of amphiphile by i.v. injections of an amphiphile-complexed Cre recombinase mRNA (CleanCap® Cre mRNA (5moU), TriLink, L-7211) in Ai14 mice. Amphiphilic molecule stock solutions were prepared in DMSO as described above. The solutions of mRNA/amphiphile complexes were freshly prepared prior to in vivo experiments. Amphiphile solutions in DMSO were mixed with mRNA solutions in a suitable buffer, such as PBS, or phosphate buffer enriched with inorganic salts (1:1 and 5:1 mass ratio, final amount of mRNA per mice=7 μg/mouse). The mixture was shaken for 30 min at room temperature before injection. For each mouse, 7 μg mRNA was complexed with 7.3(Leu-His) with myristoleyl aldehyde (7.3(Leu-His) M), and administered by i.v. injection in the tail vein in 100 μL of a suitable buffer, such as PBS, or phosphate buffer enriched with inorganic salts. As control, 7 μg of naked mRNA was injected in three mice. After 2 days, mice were sacrificed and were imaged to confirm tdTomato expression.

With `CCCC/C=C\CCCCCCCC=NNC(=O)CCCC(=O)NCCCC[C@H](NC(=O)[C@H](CCCCNC(=O)CCCC(=O)NN=CCCCCCCC/C=C\CCCC)NC(=O)[C@H](CCCNC(=N)N)NC(=O)[C@H](Cc1c[nH]cn1)NC(=O)[C@H](CCCCNC(=O)CCCC(=O)NN=CCCCCCCC/C=C\CCCC)NC(=O)[C@H](CCCNC(=N)N)NC(C)=O)C(=O)N[C@@H](Cc1c[nH]cn1)C(N)=O` [7.3(Leu-His) M] (Ac-RK([Glutaryl-X1])HRK([Glutaryl-X1])K([Glutaryl-X1])H-NH2) the pIC50 [1] was ~4.22, the biodistribution of bioluminescence [2] was “a preferred spleen biodistribution of the bioluminiscence was observed, followed by liver expression and, to a lesser extent, in the lungs” and the “conditions giving highest bioluminescence (FLuc expression)” value ([3]; 2.5 μM amphiphile, 1.25, 3 or 5 μg/mouse FLuc mRNA) was “achieved with the complexes formed by 2.5 μM amphiphile and 5 μg/mouse of FLuc mRNA”. The “luciferase activity at the site of injection” value ([3]; 5 μg FLuc mRNA) was “High levels of luciferase activity”, the “time of peak luciferase expression” value ([3]; 5 μg FLuc mRNA, all concentrations tested (2.5, 5, 10 μM)) was 7 h and the “tdTomato expression in organs” value [4] was “expression of tdTomato protein was observed preferably in spleen and lungs, being more intense when using 5:1 mass ratio amphiphile:mRNA”.
